From article PMC12678807, “The free fatty acid receptor GPR164 maintains intestinal homeostasis and barrier function” (EMBO Reports, 2025) come the findings set out here.

The target in experiment [1] is T1, GPR164 (Or51e1, Olfr558) (Mus musculus, UniProt Q8VGZ7).
T1 sequence (Q8VGZ7 1-317): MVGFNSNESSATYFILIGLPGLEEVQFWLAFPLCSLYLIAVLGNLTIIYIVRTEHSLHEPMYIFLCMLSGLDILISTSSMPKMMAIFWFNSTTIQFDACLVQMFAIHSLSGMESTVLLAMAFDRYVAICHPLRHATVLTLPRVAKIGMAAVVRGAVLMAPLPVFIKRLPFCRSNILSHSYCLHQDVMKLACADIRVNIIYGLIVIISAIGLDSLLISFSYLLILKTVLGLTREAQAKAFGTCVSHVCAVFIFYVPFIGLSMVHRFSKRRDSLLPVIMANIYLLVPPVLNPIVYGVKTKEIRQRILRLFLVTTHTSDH
Put plainly: cAMP EIA in Or51e1-overexpressing HEK293 cells, single concentration […]. Also noted: HA-tagged Or51e1 in HEK293 cells, co-transfected with RTP1S or RTP4. It counts as cell-based.

For experiment [2], the target named is T1, GPR164 (Or51e1, Olfr558). Described as above. The format is cell-based. The arrangement: HA-tagged Or51e1 in HEK293 cells, active only when co-transfected with RTP1S.

On to `CCCC(=O)O` [C4, butyrate], for which the “intracellular cAMP response” value on GPR164 (Or51e1, Olfr558) [1] is “intracellular cAMP levels were upregulated by the treatment with butyrate or valerate (Fig. 1B)”. With `CCCCC(=O)O` [C5, valerate], the “intracellular cAMP response” value on GPR164 (Or51e1, Olfr558) [1] was “only SCFAs (butyrate and valerate) activated GPR164 in cells expressing RTP4 (Fig. 1B)”. Regarding `CCCCCCCCCC(=O)O` [C10, decanoate], the “cAMP EIA in Or51e1-overexpressing HEK293 cells, single concentration 1 mM” value on GPR164 (Or51e1, Olfr558) [2] is “GPR164 was activated by the stimulation with butyrate or decanoate when cells were co-transfected with both Or51e1 and RTP1S”.
